The values below come from patent publication EP4729514A1, “BICYCLIC DERIVATIVE PARP INHIBITOR AND USE THEREOF” (Haisco Pharmaceutical Group Co., Ltd., priority 2023, dated 2024).

The target in one series is T1, PARP-1 (Homo sapiens, UniProt P09874).
T1 construct: purchased BPS 80501
In words: PARP1 enzyme activity assay (FP method, fluorescent probe). The format is biochemical. On the procedure: The inhibition of compounds on PARP1/2 enzyme activity was tested using the FP method. The substrate tracer fluorescent probe (from ICE BIOSCIENCE INC.) in the reaction was prepared in a reaction buffer (50 mM Tris (pH 8.0), 10 mM MgCl2, 150 mM NaCl, 0.001% Triox-100). PARP1/2 (BPS, Cat #80501/80502) was added to the reaction buffer, and gently mixed. The final concentrations of PARP1/2 and the fluorescent probe in the reaction mixture were 5/10 nM and 2.5 nM, respectively. Positive reference Olaparib was serially diluted 3-fold, from an initial concentration of 1 µM, to generate 10 concentration points. 0.1 µL of the compound in 100% DMSO was delivered to a 384-well plate (Corning, 4514) by the acoustic liquid conveyor (Echo 655), and the plate was centrifuged at 1000 rpm for 1 minute; 5 µL of PARP enzyme solution was transferred into the 384-well reaction plate, and the plate was centrifuged at 1000 rpm for 1 minute, and incubated at 25°C for 10 min; 5 µL of substrate solution was transferred into the 384-well reaction plate, and the plate was centrifuged at 1000 rpm for 1 minute, and incubated at 25°C for 60 minutes; finally, the mP signal value of FP (ex/em: 485 nm/520 nm) was read using the fluorescence polarisation module of the BMG PHERAstar FSX. Subsequently, the IC50 value was determined by fitting the data to a four-parameter nonlinear regression curve using GraphPad Prism 8 software. The inhibition rate was calculated according to formula 1, where RLUsample represents the readout of the compound well, RLUmax represents the readout of the solvent control well, and RLUmin represents the readout of the control well without the PARP1/2 enzyme. The IC50 value was determined by fitting the data to a four-parameter curve (log(inhibitor) vs. response -- Variable slope) using GraphPad Prism software. Inhibition% = (1−(RLUsample−RLUmin)/(RLUmax−RLUmin)) × 100% [formula] Table 1 PARP-1 enzyme activity

Series [1] is described as follows: Pharmacokinetic test in rats. The format is in vivo, SD rats. The settings on record: for Kp at 24 h: brain, 24 h after administration, cell spans the i.v. and i.g. lines, read-out: Brain/Plasma Ratio (24 h); for Kp at 24 h / bioavailability: rat; for pharmacokinetic characteristics in rats: conclusion in words; for AUC(0-t) at 24 h / clearance / Vd: rat plasma; for Vd: read-out: Vdss; for bioavailability: plasma. Here is the method: 4.1. Experimental animals: Male SD rats (about 220 g, 6-8 weeks old, 6 rats/compound) purchased from CHENGDU DOSSY EXPERIMENTAL ANIMALS CO., LTD.
4.2 Experimental design: on the day of the experiment, 12 SD rats were randomly grouped according to their body weights. The animals were fasted with water available for 12-14 h one day before the administration, and were fed 4 h after the administration. Table 4. Administration information
Before and after administration, 0.15 ml of blood was taken from the orbit under isoflurane anaesthesia and placed in an EDTAK2 centrifuge tube. The tube was centrifuged at 5000 rpm at 4°C for 10 min, and plasma was collected. The blood collection time points for the intravenous administration group and intragastric administration group were: 0, 5 min, 15 min, 30 min, 1 h, 2 h, 4 h, 6 h, 8 h and 24 h. The brain tissues were collected 24 hours after the administration, rinsed with cold physiological saline to remove the residual blood on the surface, drained out and then homogenised. Before analysis and detection, all samples were stored at -80°C. The samples were quantitatively analysed by LC-MS/MS. Table 5. Pharmacokinetic parameters of test compounds in plasma of rats

In another series the test system is DLD-1. In words: DLD-1 cell activity assay (CellTiter-Glo, 7 days). The series is classed as cell-based. The settings on record: Homo sapiens, 168 h, 7 days incubation; for inhibition at 10 µM: read-out: Max inh.% 10 µM; for IC50: table does not say whether DLD-1 or DLD-1 BRCA2 KO. On the procedure: DLD-1 (150 cells/well/100 µL) (ATCC, CCL-221) and DLD-1 BRCA2 KO (1500 cells/well/100 µL) (from ICE BIOSCIENCE INC.) were inoculated into a 96-well plate (Greiner, 655090) at appropriate cell densities and incubated overnight in a cell incubator at 37°C. The test compound was diluted in the corresponding cell culture medium, and the mixture was added to the well plate and incubated for 7 days. On the fourth day, the medium was replaced with a fresh medium containing the same concentrations of the compounds. The CellTiter-Glo reagent (CTG, Vazyme, DD1101-03) and the culture plate were taken out and returned to room temperature, and then 60 µL of CTG reagent was added to the cells. The plate was then shaken for 2 minutes to ensure complete cell lysis and placed at room temperature for 30 minutes. Luminescence signal values were read using a microplate reader (PHERAstar FSX). The wells containing only culture medium were used as negative controls, and the DMSO-containing wells were used as positive controls. The inhibitory activity percentage of the compounds was normalised using the readings from the negative and positive controls. Calculation formula of inhibition rate: [formula] Table 2 DLD-1 cell activity
(In general: Cellular ATP, detected with luciferase, serves as a proxy for viable cell number.)

In a further series the test system is A549 PARP2 KO. In words: PARP selectivity experiment (pADPr immunofluorescence after H2O2 stimulation), A549 PARP2 KO cells. The format is cell-based. Here is the method: (§1) A549WT, A549 PARP1 KO and A549 PARP2 KO cell lines were inoculated into a 384-well plate at 2500/40 µL/well, and incubated overnight at 37°C with 5% CO2. On the next day, 40 nL of serially diluted compounds were added, and the cells were incubated at 37°C with 5% CO2 for 1 hour. The cells were stimulated by adding 5 µL of H2O2. A549 WT and A549 PARP2 KO were stimulated with a final concentration of 200 µM for 5 minutes, and A549 PARP1 KO was stimulated with a final concentration of 20 mM for 45 minutes. After the stimulation, the supernatant was discarded, and the cells were fixed with 40 µL of pre-cooled methanol in a refrigerator at 4°C for 20 minutes. The cells were washed twice with PBS, and blocked with 20 µL of blocking buffer for 1 hour. A primary antibody mixture (prepared by diluting the pADPr antibody (10H: sc-56198) 1 : 500 in blocking buffer) was added, and the plate was incubated overnight at 4°C. The cells were washed three times with PBST. A secondary antibody mixture (prepared by diluting the goat anti-mouse IgG (H+L) highly cross-adsorbed secondary antibody (Alexa Fluor™ 488) 1 : 500 in blocking buffer) was added, and the plate was incubated at room temperature for 1 hour. The cells were washed three times with PBST, and 20 µL of DAPI solution (1 : 5000 dilution) was added. The plate was incubated at room temperature for 10 minutes before scanning. […]

Another series concerns A549 PARP1 KO. In words: PARP selectivity experiment (pADPr immunofluorescence after H2O2 stimulation), A549 PARP1 KO cells. The series is classed as cell-based. The settings on record: Homo sapiens, 0.75 h, H2O2 20 mM for 45 minutes. On the procedure:
as §1

Where [2] appears, read: PARP-1 enzyme activity, FP method, read-out: IC50.

Where two headings read alike, the source gives them in different places.

A word on the IC50: it is the point on the concentration scale where inhibition reaches its midpoint. In general, AUC(0-t) refers to the area under the concentration-time curve up to a stated or last time point. By clearance is commonly meant the rate of elimination divided by the concentration. Higher therefore signals a high capacity for elimination. The bioavailability is the share of a dose that reaches the circulation, judged against a reference dose that is usually intravenous. A lower bioavailability goes with poor availability.

T1 sequence (P09874 whole entry): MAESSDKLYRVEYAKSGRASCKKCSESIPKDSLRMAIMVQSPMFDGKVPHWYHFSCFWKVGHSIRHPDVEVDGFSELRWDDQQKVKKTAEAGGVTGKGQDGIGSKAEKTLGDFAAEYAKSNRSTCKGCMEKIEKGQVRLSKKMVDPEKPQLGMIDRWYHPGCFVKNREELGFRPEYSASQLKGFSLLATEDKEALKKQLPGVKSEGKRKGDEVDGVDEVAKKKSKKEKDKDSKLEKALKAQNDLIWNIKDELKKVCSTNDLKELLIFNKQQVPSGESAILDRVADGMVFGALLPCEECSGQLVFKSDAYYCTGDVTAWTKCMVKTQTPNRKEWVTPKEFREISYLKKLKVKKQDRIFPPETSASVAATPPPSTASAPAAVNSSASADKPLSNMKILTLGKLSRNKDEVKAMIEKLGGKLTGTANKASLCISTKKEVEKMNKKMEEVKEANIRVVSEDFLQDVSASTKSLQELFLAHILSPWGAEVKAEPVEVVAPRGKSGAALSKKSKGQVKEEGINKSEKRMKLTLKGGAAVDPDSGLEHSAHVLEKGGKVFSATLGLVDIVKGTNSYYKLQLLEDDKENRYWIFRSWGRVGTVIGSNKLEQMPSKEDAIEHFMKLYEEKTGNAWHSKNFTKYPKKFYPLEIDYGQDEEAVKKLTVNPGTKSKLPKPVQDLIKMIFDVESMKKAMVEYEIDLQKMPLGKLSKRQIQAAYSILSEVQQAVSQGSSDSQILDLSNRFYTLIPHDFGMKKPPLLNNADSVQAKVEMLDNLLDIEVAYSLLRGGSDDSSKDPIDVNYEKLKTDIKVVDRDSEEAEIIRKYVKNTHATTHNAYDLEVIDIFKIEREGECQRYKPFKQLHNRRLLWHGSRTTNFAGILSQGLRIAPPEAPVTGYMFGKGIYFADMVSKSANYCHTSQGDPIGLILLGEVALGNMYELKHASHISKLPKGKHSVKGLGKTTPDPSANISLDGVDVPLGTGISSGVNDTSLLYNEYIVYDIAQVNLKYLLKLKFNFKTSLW

`C=C1CC(NC(=O)c2ccc(O[C@H]3CN(Cc4ccc5nc(CC)c(=O)[nH]c5c4F)[C@@H]3C)c(F)n2)C1` [Compound 8] came in with an IC50 against PARP-1 of 5.42 nM. Moreover, the Kp at 24 h in series [1] (iv) amounted to 0.242. In addition, the “pharmacokinetic characteristics in rats” value in series [1] is reported as “good pharmacokinetic characteristics”. Also, in series [1] (iv, i.v. (2.5 mg/kg)), the AUC(0-t) at 24 h was 5720 ± 298 ng·h/mL, the clearance was 4.36 ± 0.74 mL/min/kg and the Vd was 0.855 ± 0.16 L/kg. In addition, in series [1] (po, i.g. (10 mg/kg)), the bioavailability is 81.9 ± 22% and the AUC(0-t) at 24 h amounted to 31800 ± 8480 ng·h/mL. Further, in the series on DLD-1, the inhibition at 10 µM worked out at 86.7% and the 50% inhibitory concentration (IC50) came to 16.8 nM.
At PARP-1, `C=C1CC(NC(=O)c2ccc(N3CCN(Cc4ccc5nc(C)c(=O)[nH]c5c4F)CC3)c(F)n2)C1` [Compound 9] yielded a half-inhibitory concentration (IC50) of 3.25 nM. Moreover, in the series on DLD-1, the inhibition at 10 µM came to 81.8% and half-maximal inhibition (IC50) was put at 7.99 nM.
For `Cn1ncc(NC(=O)c2ccc(N3CCN(Cc4ccc5nc(C(F)F)c(=O)[nH]c5c4F)CC3)c(F)n2)c1F` [Compound 3] the same measures were 10.5 nM, 91.6% and 4.67 nM.
With `Cn1cc(NC(=O)c2ccc(N3CCN(Cc4ccc5nc(C(F)F)c(=O)[nH]c5c4F)CC3)c(F)n2)c(F)n1` [Compound 2], in the series on A549 PARP2 KO (Homo sapiens, 5 min, A549 PARP2 KO cells, H2O2 200 µM for 5 minutes), the concentration for half-maximal inhibition (IC50) worked out at 0.63 nM. Further, in the series with A549 PARP2 KO (conclusion in words, from A549 PARP2 KO versus A549 PARP1 KO), the “selectivity for PARP1” value is recorded as “good selectivity for PARP1”. Further, on PARP-1, the IC50 was determined as 10.8 nM. The Kp at 24 h in series [1] (iv) was 1.03. Also, the “pharmacokinetic characteristics in rats” value in series [1] is listed as “good pharmacokinetic characteristics”. Also, in series [1] (iv, i.v. (2.5 mg/kg)), the area under the curve AUC(0-t) at 24 h amounted to 18700 ± 972 ng·h/mL, the clearance is 2.22 ± 0.11 mL/min/kg and the Vd turned out to be 0.348 ± 0.027 L/kg. In addition, in series [1] (po, i.g. (10 mg/kg)), the bioavailability came out at 66.8 ± 15% and the area under the curve AUC(0-t) at 24 h was 50000 ± 11500 ng·h/mL. Besides, in the series with DLD-1, the inhibition at 10 µM came out at 93.1% and half-maximal inhibition (IC50) was put at 4.67 nM. Also, the half-inhibitory concentration (IC50) in the series on A549 PARP1 KO is more than 5000 nM.
On to `CCc1nc2ccc(CN3C[C@H](Oc4ccc(C(=O)NC5CC(=C(F)F)C5)nc4F)[C@H]3C)c(F)c2[nH]c1=O` (stereo partly drawn) [Compound 11], for which the 50% inhibitory concentration (IC50) on PARP-1 (setting [2]) was determined as 5.63 nM.
For `C=C1CC(NC(=O)c2ccc(N3CCN(Cc4ccc5nc(C(F)F)c(=O)[nH]c5c4F)CC3)c(F)n2)C1` [Compound 7], the IC50 at PARP-1 (setting [2]) worked out at 12.5 nM.
Still for that read-out and setting: the result for `C=C1CC(NC(=O)c2ccc(O[C@H]3CN(Cc4ccc5nc(C)c(=O)[nH]c5c4F)[C@@H]3C)c(F)n2)C1` [Compound 18] reads 7.94 nM.
Consider `C=C1CC(NC(=O)c2ccc(N3CCN(Cc4ccc5nc(CC)c(=O)[nH]c5c4F)CC3)c(F)n2)C1` [Compound 10], for which the values for the 50% inhibitory concentration (IC50) at PARP-1 and in the series with DLD-1 were 4.55 nM and 6.96 nM, respectively. For the same molecule, the inhibition at 10 µM in the series with DLD-1 worked out at 87.6%.
`Cc1nc2ccc(CN3CCN(c4ccc(C(=O)NC5CC(=C(F)F)C5)nc4F)CC3)c(F)c2[nH]c1=O` (stereo not drawn) [Compound 12]: the 50% inhibitory concentration (IC50) on PARP-1 (setting [2]) worked out at 3.14 nM.
Still for that read-out and setting: then `Cn1ncc(C(=O)Nc2ccc(N3CCN(Cc4ccc5nc(C(F)F)c(=O)[nH]c5c4F)CC3)c(F)n2)c1F` [Compound 5], with 17.1 nM.
Consider `CCc1nc2ccc(CN3CCN(c4ccc(C(=O)Nc5cn(C)nc5F)nc4F)CC3)c(F)c2[nH]c1=O` [Compound 1], for which the concentration for half-maximal inhibition (IC50) against PARP-1 was determined as 2.74 nM. In addition, in the series on DLD-1, the inhibition at 10 µM stood at 94% and inhibition was half-maximal at 3.64 nM (IC50).
As for `CCc1nc2ccc(CN3CCN(c4ccc(NC(=O)c5cn(C)nc5F)nc4F)CC3)c(F)c2[nH]c1=O` [Compound 6], the half-maximal inhibitory concentration (IC50) at PARP-1 (setting [2]) worked out at 10.5 nM.
Same read-out and setting: the result for `CCc1nc2ccc(CN3CCN(c4ccc(C(=O)NC5CC(=C(F)F)C5)nc4F)CC3)c(F)c2[nH]c1=O` (stereo not drawn) [Compound 13] reads 6.39 nM.
As to `CCc1nc2ccc(CN3CCN(c4ccc(C(=O)Nc5cnn(C)c5F)nc4F)CC3)c(F)c2[nH]c1=O` [Compound 4], the figures for the IC50 on PARP-1 and in the series with DLD-1 were 3.38 nM and 3.1 nM, respectively. Moreover, in the series on DLD-1, the inhibition at 10 µM was determined as 91.7%.
